Earlier results in patent publication US6649649B1, “Method of treating colonic adenomas” (Merck & Co., Inc., priority 1995, dated 2003).

Experiments:
[1] = tested on: PGHS-1 or PGHS-2
[2] = tested on: incident colon cancer; details: persons who regularly used aspirin compared to those who used no aspirin
[3] = tested on: rat
[4] = tested on: polyps in patients with familial polyposis
[5] = tested on: sporadic colonic polyps; details: early sporadic polyps (67% of the polyps were <5 mm)

## CC(=O)Oc1ccccc1C(=O)O [aspirin]
[1]
  selectivity for inhibition of either PGHS-1 or PGHS-2: little selectivity
[2]
  lower risk of incident colon cancer: 40%

## COc1ccc2c(c1)c(CC(=O)O)c(C)n2C(=O)c1ccc(Cl)cc1 [indomethacin]
[1]
  selectivity for inhibition of either PGHS-1 or PGHS-2: little selectivity

## CS(=O)(=O)Nc1ccc([N+](=O)[O-])cc1OC1CCCCC1 [NS-398]
[1]
  selectivity for inhibition of either PGHS-1 or PGHS-2: selective PGHS-2 inhibitor
[3]
  analgesic effect: analgesic effects
  antiinflammatory effect: antiinflammatory
  antipyretic effect: antipyretic
  ulcerogenicity: without being ulcerogenic

## CC1=C(CC(=O)O)c2cc(F)ccc2/C1=C\c1ccc([S+](C)[O-])cc1 (centres unmarked) [sulindac]
[4]
  polyp regression: results in polyp regression
[5]
  regression of sporadic colonic polyps: did not result in a regression
[1]
  inhibition of PGHS-1 and PGHS-2: inhibiting both PGHS-1 and PGHS-2
